Measured values reported in PMC8493801, “Exploring the Monoterpene Indole Alkaloid Scaffold for Reversing P-Glycoprotein-Mediated Multidrug Resistance in Cancer” (Pharmaceuticals, 2021).

Columns and labels:
[1] = target: T1, recombinant human P-gp membranes (Homo sapiens, UniProt P08183); experiment: P-gp ATPase activity assay (Pgp-Glo); format: biochemical; conditions: 25 µM; for % basal P-gp activity: basal activity = 100%
T1 construct: purchased Promega
Excerpt: Once it was established that ATP hydrolysis is directly associated with the P-gp efflux activity, the interaction mode between selected compounds (12, 17, 18, 20, and 29) and this transporter protein was further investigated using human P-gp membranes in the ATPase activity assay (P-gp-Glo^TM) to gather insights about their interaction with P-gp activity, namely, as stimulators or inhibitors. This ATPase activity assay is based on the ATP dependence of the light-generating reaction of firefly luciferase. After incubating P-gp with ATP, the reaction is stopped, and the ATP consumption by P-gp is given by a luciferase-generated luminescent signal due to the remaining unmetabolized ATP. Thus, a greater decrease in the signal means a higher P-gp activity.
Sodium orthovanadate (Vanadate, Na3VO4) is an inhibitor of P-gp ATPase activity; thus, after treating samples with vanadate, no P-gp-dependent ATP consumption is observed. Therefore, the P-gp basal ATP consumption (basal activity) is defined as the difference between the luminescent signal of samples treated with vanadate and untreated. Consequently, the tested compounds were ranked as stimulators or inhibitors by comparing their P-gp ATPase activity with the basal activity. Verapamil (0.5 mM), a known P-gp substrate and activator of the ATPase activity of this transporter, thus causing a decrease in the percentage of luminescence of luciferase when compared with untreated samples (Figure 2), was used as control. The results are represented in Figure 2 as the difference between the luminescence of luciferase observed when treated with the compounds and with vanadate in comparison with the basal activity (100%).
The P-glycoprotein ATPase activity was determined using the Pgp-Glo^TM Assay Systems Promega kit according to the manufacturer’s instructions. Briefly, 20 µL of recombinant human P-gp membranes (1.25 mg/mL), expressing high levels of human P-gp, were incubated in 20 µL of Pgp-Glo^TM assay buffer for 5 min at 37 °C. Compounds were tested at 25 µM sodium orthovanadate (Na3VO4, 0.25 mM) as an inhibitor control, verapamil as a substrate control (0.5 mM), and DMSO at 2% as solvent control. The reaction was initiated by adding 10 µL of 25 mM MgATP and incubated at 37 °C for 40 min. The ATPase reaction was stopped, and after adding 50 µL of ATP Detection Reagent, the samples were incubated at room temperature for 20 min. The luciferase-generated luminescent signal emitted was measured in a CLARIOstar Plus plate reader (BMG Labtech, UK) at 580 nm. The % of basal P-gp activity was calculated through the ratio between the luminescence measured of the P-gp ATPase activity of each compound and the basal activity according to Equation (4).
(4) % basal P-gp activity = LumNa3VO4−Lumtreated/LumNa3VO4−Lumuntreated×100%
Figure 2 Effect of compounds 12, 17, 18, 20, 29, and verapamil (VER) on P-gp ATPase activity. The compounds are identified as P-gp substrates if they stimulate its basal activity (>100%) or as modulators when inhibiting basal activity (<100%). Compounds were tested at 25 µM and verapamil at 0.5 mM. Results were calculated as the means ± SD from experiments performed in triplicates.

[2] = system: mouse embryonic fibroblasts (NIH/3T3); experiment: MTT antiproliferative assay, non-cancer cells; format: cell-based; conditions: for SI C/B (Selectivity Index): IC50 NIH/3T3 / IC50 MDR; for SI C/A (Selectivity Index): IC50 NIH/3T3 / IC50 PAR; for IC50: NIH3T3, non-cancer mouse embryonic fibroblasts, MTT, read-out: IC50 NIH/3T3 (C)
Procedure: (§1) Non-cancer mouse embryonic fibroblasts (NIH/3T3) were also used.
In addition, the antiproliferative activity of the compounds was also evaluated on non-cancerous mouse embryonic fibroblast cells (NIH/3T3), whose values were compared with those of PAR and MDR cells by evaluation of the selective index (SI) values. […] The highest selective index values (SIC/A = 9.39; SIC/B = 10.79) were found for the derivative bearing the trimethoxyphenyl substituent (17).
(§2) L5178Y mouse T-lymphoma cells (ECACC catalog no. 87111908, US FDA, Silver Spring, MD, USA) were transfected with the pHa MDR1/A retrovirus as previously reported. The ABCB1 (P-gp) overexpressing cells were selected by culturing the infected cells with 60 ng/mL of colchicine (Sigma-Aldrich Chemie GmbH, Steinheim, Germany) to preserve the MDR phenotype. L5178Y (parental, PAR) mouse T-cell lymphoma cells and the human ABCB1-transfected subline were cultured in McCoy’s 5A supplemented with 10% heat-inactivated horse serum, 100 U/L L-glutamine, and 100 mg/L penicillin-streptomycin mixture, all obtained from Sigma-Aldrich. The mouse embryonic fibroblast (NIH 3T3) cell line was purchased from ATCC (CRL-1658) and was cultured in DMEM medium supplemented with 10% fetal bovine serum. These adherent cells were detached using 0.25% trypsin and 0.02% EDTA for 5 min at 37 °C. Before the antiproliferative assay using NIH 3T3 cell line, the cells were seeded in untreated 96-well flat bottomed microtiter plates, following a 4 h incubation period in a humidified atmosphere (5% CO2, 95% air) at 37 °C.

[3] = system: sensitive L5178Y mouse T-lymphoma cells (PAR); experiment: MTT antiproliferative assay, sensitive cells; format: cell-based; conditions: 72 h, mean ± SD
Procedure: as §1, §2
The assay was performed according to the previously applied experimental settings.

[4] = system: human ABCB1-transfected L5178Y mouse lymphoma cells; experiment: Checkerboard combination assay with doxorubicin; format: cell-based; parameters: key to CI at ED50 (combination index): CI <1 synergy, =1 additive, >1 antagonism; conditions: MDR cells; for CI at ED50 (combination index): best ratio
Procedure: The in vitro interactions between the compounds and the well-known antitumor drug and P-gp substrate, doxorubicin, were evaluated in a combination chemotherapy model on human ABCB1-transfected mouse T-lymphoma cells. The nature of drug–drug interactions was assessed by determination of the combination index (CI) using the Chou and Talalay method (Figure 1), and therefore evaluated as synergistic (CI < 1), additive (CI = 1), or antagonistic (CI > 1).
Doxorubicin (2 mg/mL, Teva Pharmaceuticals, Budapest, Hungary) was serially diluted horizontally in 100 µL as previously described, starting with 8.6 µM. The resistance modifier was subsequently diluted vertically in 50 µL; the starting concentration was determined based on the IC50. […] The checkerboard plates were kept for 72 h at 37 °C in a CO2 incubator, and at the end of the incubation period, the cell growth was determined by MTT staining method, as described earlier. Drug interactions were evaluated using Calcusyn software. Each dose–response curve (for individual agents as well as combinations) was fit to a linear model using the median effect equation in order to obtain the median effect value (corresponding to the IC50) and slope (m). The goodness-of-fit was assessed using the linear correlation coefficient, r, and only data from analysis with r > 0.90 were presented. The extent of interaction between drugs was expressed using the combination index, in which a CI value close to 1 indicates additivity, while a CI < 1 is defined as synergy and a CI > 1 as antagonism.

[5] = system: human ABCB1-gene transfected L5178Y subline (MDR); conditions: for RR (relative resistance ratio) = IC50MDR/IC50PAR: RR ≤ 0.5 means CS effect

T1 sequence (P08183 whole entry): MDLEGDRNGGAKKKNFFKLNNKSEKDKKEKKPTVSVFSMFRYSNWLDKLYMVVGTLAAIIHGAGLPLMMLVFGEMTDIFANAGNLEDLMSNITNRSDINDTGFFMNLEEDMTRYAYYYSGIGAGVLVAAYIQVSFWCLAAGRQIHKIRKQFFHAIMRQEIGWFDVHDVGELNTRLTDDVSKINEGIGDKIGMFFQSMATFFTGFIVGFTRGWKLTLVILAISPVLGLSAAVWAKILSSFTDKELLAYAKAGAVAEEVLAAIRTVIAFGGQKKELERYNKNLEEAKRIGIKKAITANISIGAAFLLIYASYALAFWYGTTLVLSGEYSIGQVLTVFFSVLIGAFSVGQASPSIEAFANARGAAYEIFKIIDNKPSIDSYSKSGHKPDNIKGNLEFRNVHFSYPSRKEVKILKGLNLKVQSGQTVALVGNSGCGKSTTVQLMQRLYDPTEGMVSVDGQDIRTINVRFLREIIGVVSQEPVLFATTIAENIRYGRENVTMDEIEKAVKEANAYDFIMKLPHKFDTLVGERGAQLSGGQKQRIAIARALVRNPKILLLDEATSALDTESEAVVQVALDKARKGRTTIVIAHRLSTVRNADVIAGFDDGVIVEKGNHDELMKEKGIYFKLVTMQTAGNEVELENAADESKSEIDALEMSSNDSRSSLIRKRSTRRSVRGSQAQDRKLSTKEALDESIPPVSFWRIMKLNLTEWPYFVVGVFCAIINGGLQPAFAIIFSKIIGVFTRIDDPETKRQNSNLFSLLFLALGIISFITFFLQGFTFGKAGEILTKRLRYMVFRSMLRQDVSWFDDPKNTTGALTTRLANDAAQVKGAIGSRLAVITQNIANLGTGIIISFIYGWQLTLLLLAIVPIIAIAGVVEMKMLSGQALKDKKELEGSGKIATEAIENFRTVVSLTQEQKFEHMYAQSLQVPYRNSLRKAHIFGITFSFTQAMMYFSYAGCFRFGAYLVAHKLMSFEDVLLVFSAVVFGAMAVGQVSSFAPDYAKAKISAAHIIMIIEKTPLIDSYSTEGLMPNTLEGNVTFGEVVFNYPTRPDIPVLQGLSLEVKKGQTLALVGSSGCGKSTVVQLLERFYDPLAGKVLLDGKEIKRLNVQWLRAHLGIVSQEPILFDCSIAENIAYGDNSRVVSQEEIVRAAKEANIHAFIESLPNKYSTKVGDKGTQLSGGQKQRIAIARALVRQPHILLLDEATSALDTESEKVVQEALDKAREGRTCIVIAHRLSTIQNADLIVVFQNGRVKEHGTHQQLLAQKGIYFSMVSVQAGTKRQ

| Effect on P-gp ATPase activity [1] | % basal P-gp activity [1] | IC50 [3] | IC50 [5] | RR (relative resistance ratio) = IC50MDR/IC50PAR [5] | SMILES | SI C/B (Selectivity Index) [2] | SI C/A (Selectivity Index) [2] | IC50 [2] | Interaction [4] | CI at ED50 (combination index) [4] |
| --- | --- | --- | --- | --- | --- | --- | --- | --- | --- | --- |
| inhibitors of P-gp ATPase activity | < 100% | 11.3 ± 0.84 µM | 9.58 ± 0.74 µM | 0.85 | CCC1CN(C)C2Cc3c([nH]c4ccccc34)C(=NN=Cc3ccc4ccccc4c3)CC1C2C(=O)OC (stereo not drawn) [Compound 18, 3-[(2″-naphthalenylmethylene)hydrazineylidene]dregamine] | 1.22 | 1.04 | 11.7 ± 1.53 µM | Strong Synergism | 0.285 |
| inhibitors of P-gp ATPase activity | < 100% | 8.72 ± 0.53 µM | 8.73 ± 0.53 µM | 1.00 | CCC1CN(C)C2Cc3c([nH]c4ccccc34)C(=NN=Cc3cc4ccccc4[nH]3)CC1C2C(=O)OC (stereo not drawn) [Compound 20, 3-[((1H-indol-2-yl)methylene)hydrazineylidene]dregamine] | 1.57 | 1.58 | 13.8 ± 0.69 µM | Strong Synergism | 0.291 |
| inhibitors of P-gp ATPase activity | < 100% | 6.56 ± 0.04 µM | 7.4 ± 0.2 µM | 1.13 | CCC1CN(C)C2Cc3c([nH]c4ccccc34)C(=NNC(=O)Nc3ccc(Br)cc3)CC1C2C(=O)OC (stereo not drawn) [Compound 29, 3-[2″-((4‴-bromophenyl)carbamoyl)hydrazineylidene]dregamine] | 1.76 | 1.99 | 13 ± 0.4 µM | Strong Synergism | 0.173 |
